# In patent US12636366B2, “Ruthenium (II) complexes and conjugates thereof for use as photosensitizer agent in photodynamic therapy” (Paris Sciences et Lettres, priority 2019, dated 2026):
# Assay: In vivo biodistribution in healthy BALB/c mice (ruthenium by ICP-MS)
# Parameters: species or system mouse
# Experimental: Twenty four, 8 week old healthy BALB/c female mice were used in this study. 0.015 mg/ml solution of complex 6 was prepared in Milli-Q water and filtrated (0.2 μm cellulose acetate membrane, VWR). For the introduction of solution of complex 6, IV injection was used (300 μl per mouse). Organ samples, including brain, liver, spleen, kidneys and lung, were collected from treated mice after 2 h, 6 h and 24 h post-injection. Each time six mice were sacrificed. Remaining six animals were used as a control.
# For these experiments, we have decided to use the chloride salt of the complex 6 to improve its solubility. The time-dependent biodistribution of this compound in different organs was determined in healthy 8-week-old BALB/c mice according to the above-described method. The amount of ruthenium in the tested samples was assessed using Inductive Coupled Plasma Mass-Spectrometry (ICP-MS). […] After 24 h, the amount of ruthenium in the liver decreased. This is a very promising result that could indicate that complex 6 is metabolized by the liver in living organisms.
substance,measurement,setting,value
"(4,4′-Dimethyl-2,2′-bipyridine)bis(4,7-diphenyl-1,10-phenanthroline)ruthenium(II) hexafluorophosphate [Compound 6]","Levels of Ru in harvested organs (brain, liver, spleen, kidneys, lung)","IV injection, 6 h post injection, chloride salt",only liver had clearly increased levels of Ru
same,Amount of ruthenium in the liver,"IV injection, after 24 h, chloride salt",decreased
same,Behaviour of treated animals,"IV injection, chloride salt","behave normally, without signs of pain, stress or discomfort"
same,"Blood analysis, immune response compared to untreated control",after 24 h treatment,no sign of immune response
